{"source": "patent US11351218B2", "about": "“Composition for preventing or treating glioblastoma comprising Platycodon grandiflorum A. De Candolle, Scutellaria baicalensis, Phellodendron amurense Ruprecht or Rubus coreanus” (University-Industry Cooperation Group of Kyung Hee …, priority 2019, dated 2022)", "key": {"[1]": {"tested_on": "SQSTM1 mRNA", "assay": "RT-PCR of SQSTM1 (p62) mRNA in GBM cells", "type": "cell-based, human", "conditions": "PD 5 μM and 10 μM, 24 hours, both GBM cells", "description": "FIGS. 3A to 3C show the results that PD inhibits autophagic flux in GBM cells. […] The expression of LC3B and SQSTM1 was confirmed by immunoblot analysis. […] GAPDH was used as a loading control.\nTotal RNA was isolated using the Easy-Blue RNA extraction kit (iNtRON Biotech, Sungnam, Korea) according to the manufacturer's directions. 1 μg of the total RNA was reverse transcribed using a cDNA synthesis kit (TaKaRa, Otsu, Shinga, Japan) according to the manufacturer's instructions. The obtained cDNA was then amplified by PCR in a reaction mixture consisting of 10× Taq buffer, 2.5 mM dNTP mixture, Taq DNA polymerase (Takara), and corresponding primer sets. The primer sequences were as follows. Human SQSTM1-forward: 5′-GAACTCCAGTCCCTACAGATGCC-3′ (SEQ ID NO: 1), SQSTM1-reverse: 5′-CGGGAGATGTGGGTACAAGG 2-3′ (SEQ ID NO: 2); Human LDLR-forward: 5′-CAG ATA TCA TCA ACG AAG C-3′ (SEQ ID NO: 3), LDLR-reverse: 5′-CCTCTCACACCAGTTCACTCC-3′ (SEQ ID NO: 4); Human GAPDH-forward: 5′-CGTCTTCACCACCATGGAGA-3′ (SEQ ID NO: 5), GAPDH—reverse: 5′-CGGCCATCACGCCACAGTTT-3′ (SEQ ID NO: 6). The PCR products were analyzed by 1.5% agarose gels."}, "[2]": {"tested_on": "U87MG cells", "assay": "GFP-LC3B puncta assay (confocal microscopy), U87MG cells", "type": "cell-based, human", "conditions": "10 μM PD, 24 hours", "description": "(§1) The cells transiently expressing GFP-LC3 (green) were treated with DMSO or PD (10 μM) for 24 hours and analyzed by confocal microscopy. Nuclei were stained with DAPI (blue). Quantification shown on the right graph represents mean GFP-LC3B puncta per cells from three independent experiments±SD.\n(§2) Cultured cells seeded in plates with microscope coverslips were transfected with a pGFP-LC3B plasmid using Lipofectamine 3000 (Thermo Fisher Scientific) according to the manufacturer's instructions. After the transfection, the cells were fixed with 4% paraformaldehyde (PFA) in phosphate-buffered saline (PBS) at room temperature for 10 minutes. The images were examined under a laser confocal microscope (Zeiss, Oberkochen, Baden-Wurttemberg, Germany).\n(§3) To confirm the western blot data, the LC3B accumulation in GBM cells was monitored using a confocal microscope. Both U87MG and U373MG cells transfected with a green fluorescent protein (GFP)-tagged LC3 expression plasmid were treated with 10 μM PD for 24 hours and examined under a confocal microscope."}, "[3]": {"tested_on": "U373 cells", "assay": "GFP-LC3B puncta assay (confocal microscopy), U373 cells", "type": "cell-based, human", "conditions": "U373, 10 μM PD, 24 hours", "description": "as §1, §2, §3"}, "[4]": {"tested_on": "A549, H358, MCF7, HT29 and HepG2 cells", "assay": "Cell morphology (vacuoles) under optical microscope in various cancer cell lines", "type": "cell-based", "conditions": "PG 500 μg/mL or PD 10 μM, 24 hours"}, "[5]": {"tested_on": "p-ERK", "assay": "Immunoblot of ERK phosphorylation, U373MG cells", "type": "cell-based, human", "conditions": "PD treatment, 24 hours", "description": "FIGS. 10A to 10D show the results that PD-mediated autophagy inhibition is independent of mTOR and MAPK signaling pathways. FIGS. 10A to 10C show the results in which cells were treated with PD (0 μM, 0.5 μM, 1 μM, 5 μM, and 10 μM) for 24 hours. The immunoblot analyses for p-ULK1 (Ser757), ULK1, p-S6K (Thr389), p-AKT (Ser473), ERK2, P-ERK, p-JNK1, Beclin, and ATG7 were performed using lysates from GBMs. […] Total protein extracts were analyzed by immunoblot analyses for p-ERK, LC3B, and SQSTM1. GAPDH was used as an internal control.\nCells treated with the concentrations and materials described in FIGS. 1-3B, 7, 8, 10, 13, 16, 18, and 20 were lysed in buffer containing 20 mM Tris-HCl (pH 7.5), 150 mM NaCl, 1 mM EDTA, 1 mM Na2EDTA, 1 mM EGTA, 1% NP-40, 1% sodium deoxycholate, 1 mM Na3VO4, 1 mM MPI, 1 mM PMSF, and PI cocktails for 15 to 20 minutes on ice. Cell lysates were separated by SDS-PAGE and transferred to nitrocellulose membranes. […] The protein bands were detected with ECL western Blotting Substrate (Thermo Fisher Scientific, Waltham, Mass., USA).\nPrevious studies have shown that PD enhances autophagy via mTOR/MAPK pathway. […] It is known that mTORC1 activation, measured by S6K phosphorylation, inhibits autophagy initiation by phosphorylating the ULK1 (Ser 757). […]"}, "[6]": {"tested_on": "U87MG and U373MG cells", "assay": "LysoTracker assay with GFP-LC3B (autophagosome-lysosome fusion) in GBM cells", "type": "cell-based, human", "conditions": "PD 10 μM, 24 hours", "source_text": "[…] Then, cells were stained with LysoTracker (red) and DAPI (blue). The merged images show an overlap between GFP-LC3 and LysoTracker (yellow). The panels on the right are higher-magnification images of the boxed regions.\nas §2\nTo stain acidic compartments, 50 nM LysoTrackerRedDND-99 (Thermo Fisher Scientific) was added to a medium at 37° C. with 5% CO2 for 30 minutes prior to fixation. The nuclei were labeled with 4,6-diamidino-2-phenylindole (DAPI, Sigma). The slides were finally mounted using a Faramount mounting medium (Dako, Glostrup, Denmark). The images were examined under a Zeiss laser confocal microscope.\nExperimental Result 11. PD Blocks Fusion of Autophagosomes with Lysosomes. Since p62 was accumulated in autophagosomes by PD treatment, it was speculated that PD may cause the lysosomal dysfunction like bafilomycin A1, which inhibits vacuolar H^+-ATPase (V-ATPase)-dependent lysosomal acidification and blocks autophagosome-lysosome fusion. Thus, the PD-treated cells with LysoTracker Red, which is a marker for acidic compartment including lysosomes was stained to examine the colocalization of GFP-LC3B."}}}
{"molecule": "C[C@@H]1O[C@@H](O[C@H]2[C@H](OC(=O)[C@]34CCC(C)(C)C[C@H]3C3=CC[C@@H]5[C@@]6(C)C[C@H](O)[C@H](O[C@@H]7O[C@H](CO)[C@@H](O)[C@H](O)[C@H]7O)C(CO)(CO)[C@@H]6CC[C@@]5(C)[C@]3(C)C[C@H]4O)OC[C@H](O)[C@@H]2O)[C@H](O)[C@H](O)[C@H]1O[C@@H]1OC[C@@H](O)[C@H](O[C@@H]2OC[C@](O)(CO)[C@H]2O)[C@H]1O", "note": "[PD, platycodin D]", "values": [{"measurement": "p62 mRNA levels", "setting": "[1]", "value": "did not alter"}, {"measurement": "fold increase of GFP-LC3 puncta per cell vs DMSO", "setting": "[2]", "value": 10.1, "unit": "fold"}, {"measurement": "GFP-LC3 puncta per cell", "setting": "[2]; mean±SD", "value": "38.03±5.75"}, {"measurement": "fold increase of GFP-LC3 puncta per cell vs DMSO", "setting": "[3]", "value": 8.9, "unit": "fold"}, {"measurement": "GFP-LC3 puncta per cell", "setting": "[3]; mean±SD", "value": "32.84±3.98"}, {"measurement": "vacuoles", "setting": "[4]", "value": "visible vacuoles were observed"}, {"measurement": "phosphorylation levels of ERK", "setting": "[5]", "value": "markedly increased"}, {"measurement": "lysosomal acidification (LysoTracker Red fluorescence)", "setting": "[6]", "value": "does not affect lysosomal acidification"}, {"measurement": "colocalization of GFP-LC3B and LysoTracker Red staining", "setting": "[6]; BafA1 100 nM, Rapa 1 μM", "value": "significant separation"}]}
